Experiment [1] has as its system keloid fibroblasts. The experiment is described as follows: Cell viability / proliferation of keloid fibroblasts (CCK-8). It counts as cell-based, human. The note with it: increasing dose of Y-27632, 24 hours, FIG. 3A. The protocol:
Immunofluorescence confocal microscopy experiments were performed with antibodies to F-actin (green) and vinculin (orange). Scale bar=50 μm. Quantification of fluorescence intensity was shown. The experiments were performed in triplicate. Student's t test was used for all analyses. * P<0.05. […] Briefly, human skin and keloid tissues were collected from five patients who underwent surgical resection at Seoul National University Boramae Hospital. The samples were rinsed three times with Dulbecco's phosphate-buffered saline containing 1% antibiotic-antifungal solution (A/A; Welgene, Gyeongsangbuk-do, Korea) and cut into 3 mm thick pieces. The tissues were then placed in 5 mg/ml dispase solution (Roche, Basel, Switzerland) for 4 hours at 37° C. The dermis and epidermis were separated, chopped into 1-mm thick pieces, and digested in 3 mg/ml collagenase type I (Thermo Fisher, MA, USA) to obtain a single cell suspension. The cells were cultured in Dulbecco's modified Eagle's medium (DMEM; Biowest, Nuaillé, France) containing 10% fetal bovine serum (FBS; Biowest, France) and 1% Antibiotic/Antimycotic Solution (Welgene Inc., Korea) in a humidified incubator at 37° C. and 5% CO2. […] The effect of stretch stimulation on the proliferation of normal and keloid fibroblasts was evaluated by the CCK-8 assay. […] The experiments were performed in triplicate and the data are expressed as the mean±SD.

For experiment [2], the system named is F-actin. The experiment is described as follows: F-actin immunofluorescence in keloid fibroblasts. It counts as cell-based, human. The protocol:
Immunofluorescence confocal microscopy experiments were performed with antibodies to F-actin (green) and vinculin (orange). Scale bar=50 μm. Quantification of fluorescence intensity was shown. The experiments were performed in triplicate. Student's t test was used for all analyses. * P<0.05. […] Scale bar=50 μm. The results were expressed as the mean with SD (n=5). The experiments were performed in triplicate. Student's t test was used for all analyses. * P<0.05. […] Cells were washed twice with cold PBS and fixed overnight at 4° C. with 4% (w/v) paraformaldehyde. […] The cells were exposed to blocking buffer (1% BSA/PBS) for 30 min at room temperature and then exposed to Alexa Fluor 488-conjugated phalloidin (#A12379, Invitrogen, USA) in 1% BSA/0.1% Triton X-100/PBS for 1 hour at room temperature. After three washing steps, the cells were mounted with DAPI mounting medium, sealed with coverslip, and examined using a confocal laser scanning microscope (LSM 900; Carl Zeiss, NY, USA).

Experiment [3] concerns phosphorylated cofilin and myosin light chain (MLC). In words: Western blotting of p-MLC/MLC and p-cofilin/cofilin in keloid fibroblasts. The conditions noted are these: keloid fibroblasts with or without stretch, Y-27632, FIG. 4C. The class given is cell-based, human. The procedure:
Scale bar=50 μm. The results were expressed as the mean with SD (n=5). The experiments were performed in triplicate. Student's t test was used for all analyses. * P<0.05. […] To obtain whole-cell extracts, cells were lysed with Pierce Cell Lysis Buffer (Thermo Fisher, MA, USA) containing phosphatase inhibitors and protease inhibitors. Protein extracts (30 μg) were analyzed by sodium dodecyl sulfate polyacrylamide gel electrophoresis (SDS-PAGE) and transferred to a polyvinylidene difluoride membrane. […] GAPDH was used as a loading control for Western blotting analysis.
On the technique in general: In western blotting, separated proteins are transferred to a membrane and probed.

For experiment [4], the system named is COL1A1, COL3A1, Fibronectin, α-SMA, CTGF, PCNA mRNA. In words: qRT-PCR of pro-fibrotic genes in keloid fibroblasts. The class given is cell-based, human. The note with it: mechanically stimulated keloid fibroblasts, FIG. 5A. The protocol: Scale bar=200 μm. The results were expressed as the mean with SD (n=5). Student's t test was used for all analyses. * P<0.05. […] Total RNA was extracted using TRIzol reagent (Thermo Fisher Scientific, MA, USA). RNA (1000 ng) was subjected to cDNA synthesis using oligo (dT) random primers (Integrated DNA Technologies, IA, US) and AccuPower RT PreMix (Bioneer, South Korea) according to the following procedure: qRT-PCR was performed with PowerUp SYBR green master mix on a StepOnePlus real-time PCR System (Applied Biosystems, CA, USA) at 42° C. for 60 min and 95° C. for 5 min. The mRNA levels of each gene were normalized to the mRNA levels of GAPDH. The PCR steps are composed of an initial denaturation step at 94° C. for 5 min; at 94° C. for 1 min (denaturation), 55° C. for 1 min (annealing), and 72° C. for 2 min (extension); and a final extension step at 72° C. for 7 min. […] Relative expression was calculated using the 2-ΔΔCt method.

Experiment [5] deals with keloid fibroblasts. In words: Transwell migration analysis of keloid fibroblasts. The class given is cell-based, human. The conditions noted are these: under mechanical force (stretch 24 hours), 10 μM Y-27632, transwell 24 hours, FIG. 5B. The protocol: Scale bar=200 μm. The results were expressed as the mean with SD (n=5). Student's t test was used for all analyses. * P<0.05.
For migration analysis using Transwell […] pore-size polycarbonate membrane (#3422, Corning Inc., ME, USA). […] As a control, static cells were cultured in a strex stretch chamber under the same conditions without stretch stimulation. Keloid cells were then harvested and counted, and 2×10^4 cells were resuspended in 150 μL of medium containing 1% FBS and reintroduced into the upper compartment of the insert. The lower compartment was filled with 500 μL of medium containing 2% FBS as a chemoattractant. The cells were allowed to migrate for 24 hours at 37° C. The cells were fixed in 4% PFA, permeabilized with 0.1% Triton X-100 in PBS for 10 min, and stained with hematoxylin for 10 min at room temperature. After washing with PBS, non-migrated cells were removed from the upper insert by a cotton swab. The polycarbonate membrane was removed from the insert and mounted on a slide. Fields of migrated cells were captured with an inverted microscope (Leica Microsystems GmbH, Wetzlar, Germany). The migration area was evaluated as a purple area extracted from each image, and analyzed with Image J software as a percentage of the migrated area.

In experiment [6] the test system is YAP and MRTF. The experiment is described as follows: Nuclear translocation of YAP and MRTF during stretching (subcellular fractionation, Western blotting). The note with it: stretched keloid fibroblasts, FIG. 6. It counts as cell-based, human. The text has this: A is a Western blotting analysis of nuclear translocation of YAP and MRTF in the subcellular fraction of keloid fibroblasts subjected to or not subjected to mechanical stretching with or without Y-27632. B is a quantitative analysis of cytoplasmic and nuclear expression levels of MRTF and YAP. The results were expressed as the mean with SD (n=5). Student's t test was used for all analyses. *P<0.05. Nuclear/cytoplasmic extracts were separated separately using NE-Per Nuclear and Cytoplamic Extractons Reagents (#78833, Thermo Scientific, MA, USA) according to the manufacturer's instructions. Subcellular fractionation lysis was analyzed by Western blotting analysis for YAP (#5157, Cell Signaling, MA, USA), MRTF (sc-47724, Santa Cruz, CA, USA) including GADPH ([…], Santa Cruz, CA, USA) and Lamin B (#12586, Cell Signaling, MA, USA) as internal markers for cytoplasmic and nuclear fractions, respectively. The quantification was performed with Image J software.

For experiment [7], the system named is keloid nodules formed by human keloid fibroblasts. In words: Patient-derived keloid xenograft SCID mouse model of nodule formation (nodule volume and weight). The class given is in vivo. The note with it: SCID mice, Y-27632 20 mg/kg injected into nodule. The procedure: Approval for animal experiments was obtained from the Animal Experiment Performance Committee of Seoul National University Boramae Hospital (Approval No.: 2019-0031). Male NOD.CB17-Prkdc scid/J (SCID) mice (5 weeks old, weight: 22.58±0.91 g) were purchased from Charles River Japan (Yokohama, Japan). All animal experimental procedures were performed in accordance with the guidelines of the Animal Experiment Research Committee of Seoul Boramae Hospital. All experiments were performed under aseptic conditions. Under anesthesia using isoflurane, the dorsal furs of seven SCID mice were removed, the midline was marked, and then a 26-gauge needle was used in a 1-ml syringe (Becton, Dickinson and Company, Franklin Lakes, NJ, USA). These cells were obtained from seven patients who underwent keloid resection at Seoul National University Boramae Hospital. The cells were injected approximately 1 cm apart from the left and right sides of the most prominent area of the mouse's back. […] The nodules were measured every 2 to 3 days with calipers, and nodule volume was calculated using the following equation: Nodule volume=½×A×B2, where A=length in millimeters, B=width in millimeters. To collect the nodules 14 days after keloid fibroblast injection, the surrounding skin was carefully separated using forceps and a blade, and only the nodules were collected and weighed.

Experiment [8] has the same test system. In words: In vivo histological and immunohistochemical analysis of keloid nodules. On the set-up: species or system SCID mice. The procedure: A isolates nodules from mice treated with DMSO or Y-27632. […] Original magnification: ×200, scale bar=100 μm.
Nodules were harvested 14 days after initial cell injection, fixed in 4% paraformaldehyde at 4° C. for 24 hours, washed with water for at least 4 hours, and finally embedded in paraffin. Paraffin sections (4 μm thick) were stained with hematoxylin and eosin (H&E, ab245880, Abcam, Cambridge, UK) and MT (TRM-2, ScyTek, Logan, Utah, USA) according to the manufacturer's instructions. The cytoplasm (400× magnification) of H&E-stained sections and the collagen density (400× magnification) of MT-stained sections were checked for each section using an Olympus BX53 microscope (Olympus Corporation, Shinjuku, Japan). Screenshots of three fine fields (right, center, and left) were acquired. The number of inflammatory cells per unit area (0.1 mm^2) was calculated using Olympus cellSens standard imaging software. The optical density of collagen was measured using ImageJ Immunohistochemical staining by avidin-biotin complex method. Briefly, paraformaldehyde (4%) fixed specimens were embedded in paraffin and cut into 4 μm thickness. The sections were dried at 56° C. for 1 hour, and then subjected to deparaffinization and rehydration steps with xylene. The sections were then cultured with trypsin enzyme antigen retrieval solution (ab970, Abcam, Cambridge, UK) at 37° C. for 30 min. Overnight culture was performed with primary antibodies at 4° C. After three washes with Tris-buffered saline containing 0.025% Triton-100, the second antibody was applied to each section at room temperature for 30 min. Images were taken in three fields (right, center, and left) with an Olympus BX53 microscope and analyzed with Image J software.

Experiment [9] relates to ROCK1. The conditions noted are these: FIG. 4A.
Method: Mechanical stretching was applied to keloid fibroblasts using a mechanical stretching device (STB-1400; Strex Inc., Osaka, Japan). Briefly, the keloid fibroblasts were seeded at a density of 1.2×10^5 cells in a strex stretch chamber (STB-CH-10 Strex Inc., Osaka, Japan) pre-coated with 20 μg/ml rat tail type I collagen (C7661, Sigma Aldrich). After allowing attachment for overnight incubation, the strex stretch chamber was moved to the stretching device and mounted on a hook. The flexible silicone chamber was exposed to stretching with a length of 0-20% tension at a frequency of 10 cycles/min (0.166 Hz) for 24 hours. […] Cells of the control group were cultured in the same type of chamber in an incubator.
ROCK1 kinase activity was analyzed with a ROCK activity assay kit (Cell Biolabs, CA, USA) according to the manufacturer's instructions. The ROCK activity assay kit is an enzyme immunoassay designed to detect the phosphorylation level of myosin phosphatase target subunit 1 at Thr696 by ROCK. […] The cells were harvested, trypsinized, and washed twice with PBS. […] Protein concentrations were determined using the Pierce BCA Quantification Protein Kit (Thermo Fisher Scientific, MA, USA). […] The absorbance was read at 450 nm with a SpectraMax Plus 384 microplate reader (Molecular Devices, San Jose, CA, USA).

SMILES strings stand for the structures. Read-outs that look alike come from different tables or passages of the source.

`C[C@@H](N)[C@H]1CC[C@H](C(=O)Nc2ccncc2)CC1` [Y-27632]: the “inhibitory effect on keloid fibroblast proliferation” value in experiment [1] is given as “No inhibitory effect”. The “disruption of F-actin cytoskeletal structure” value in [2] (at 25 and 50 μM, 24 h, keloid fibroblasts) is “dramatic disruption”. Also, the “cellular F-actin network” value in [2] (fibroblasts with or without mechanical stretching exposed to Y-27632, FIG. 4B) is on record as “significantly disrupted”. For the same compound, in experiment [2] (increasing doses, 24 h, FIG. 3B), the “F-actin fiber formation in keloid fibroblasts” value is given as “tightly regulated by Y-27632 treatment in a dose-dependent manner”. Besides, the “expression of phosphorylated proteins (p-cofilin, p-MLC)” value in [3] is listed as “greatest decrease”. Besides, in experiment [4], the “mRNA levels of fibrotic genes (COL1A1, COL3A1, Fibronectin, α-SMA, CTGF, PCNA)” value is “decrease”. Further, the “migration of keloid fibroblasts” value in [5] was “partially inhibited”. Also, in [6], the “nuclear import of YAP and MRTF” value is recorded as “inhibiting nuclear import”. In experiment [7], the “weight of keloid nodules compared to the control group” value is listed as “significantly reduced”. In addition, the “mean volume of keloid nodules at the time of keloid nodule excision” value in experiment [7] (DMSO control 21.27±13.98) worked out at 17.21±13.49 MM^3. Further, the “average weight of keloid nodules” value in experiment [7] (control 7.61±3.16, FIG. 7A) is recorded as 4.56±3.50 Mg. Also, the “inflammatory cells in the keloid region” value in experiment [8] (H&E staining, compared to the control group) is reported as “reduced inflammatory cells”. Further, the “deposition of collagen bundles (MT staining)” value in experiment [8] (control group compared to the Y-27632-treated group) is “higher deposition of collagen bundles in the control group”. Moreover, in experiment [8] (immunohistochemistry of nodule tissue, compared to the DMSO-treated group, FIG. 7B), the “protein expression of VEGF, SMA, vimentin, collagen type I, and collagen type III” value was “significantly reduced”. Moreover, the “decrease in the activity of ROCK1” value in [9] (keloid fibroblasts treated with Y-27632 (10 μM, 24 hours) and stretch-stimulated) came to 26%; in experiment [9] (keloid fibroblasts treated with Y-27632 alone (10 μM, 24 hours, static)), 10.8%.

For the origin of these results see patent US20250206845A1, “PHARMACEUTICAL COMPOSITION INCLUDING RHO-KINASE INHIBITOR FOR PREVENTION OR TREATMENT OF CUTANEOUS FIBROTIC DISORDERS SUCH AS KELOID, ETC. AND USE THEREOF” (Seoul National University R&DB Foundation, priority 2022, published 2025).
